Experimental findings from patent publication US9169241B2, “Quinolinyloxyphenylsulfonamides” (Max-Planck-Gesellschaft Zur Forderung der Wissenschaften …, priority 2009, dated 2015) are described below.

Like-named read-outs stand apart in the source and are kept apart here.

Type in all cases: cell-based
For experiment [1], the system named is NCI-H1299. In words: Matrigel outgrowth assay/branching assay. Particulars: IC100, NCI-H1299; Table Vb. The gist of the method: (§1)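 Step one: Matrigel (3 mg/ml) is set for 1 h at 37° C. Step two: 5000 cells per well go on in medium with compound (0.78–3.125 μM) or DMSO. Step three: images at 48, 72 and 96 h are scored for complete loss of branching.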
Experiment [2] has as its system PC3. In words: Matrigel outgrowth assay/branching assay. Particulars: IC100, PC3; Table Vb. The method in brief:
as §1

In experiment [3] the test system is SK-MEL28. In words: Matrigel outgrowth assay/branching assay. Particulars: IC100, SK-MEL28; Table Vb. The gist of the method:
as §1

For experiment [4], the system named is U138. The experiment can be described thus: Matrigel outgrowth assay/branching assay. Particulars: IC100, U138; Table Vb. The gist of the method:
as §1

Experiment [5] deals with U373. The experiment can be described thus: Matrigel outgrowth assay/branching assay. Particulars: IC100, U373; Table Vb. The method in brief: as §1
Experiment [6] has as its system U87MG. The experiment can be described thus: Matrigel outgrowth assay/branching assay. Conditions: IC100, U87MG; Table Vb. The method in brief: as §1
For experiment [7], the system named is tumor cell. The experiment can be described thus: Matrigel outgrowth assay/branching assay (Table Va). The gist of the method: as §1
For experiment [8], the target named is T1, wild type AXL (wtAXL) receptor tyrosine kinase (Homo sapiens, UniProt P30530).
T1 construct: WtAXL cDNA was cloned into vector pLXSN(ESK) and transfected into Phoenix E packaging cells; expressed in transfected cells; host or cells: NIH3T3 N7 (mouse fibroblasts), retrovirally infected, clone 22
T1 sequence (P30530 26-894): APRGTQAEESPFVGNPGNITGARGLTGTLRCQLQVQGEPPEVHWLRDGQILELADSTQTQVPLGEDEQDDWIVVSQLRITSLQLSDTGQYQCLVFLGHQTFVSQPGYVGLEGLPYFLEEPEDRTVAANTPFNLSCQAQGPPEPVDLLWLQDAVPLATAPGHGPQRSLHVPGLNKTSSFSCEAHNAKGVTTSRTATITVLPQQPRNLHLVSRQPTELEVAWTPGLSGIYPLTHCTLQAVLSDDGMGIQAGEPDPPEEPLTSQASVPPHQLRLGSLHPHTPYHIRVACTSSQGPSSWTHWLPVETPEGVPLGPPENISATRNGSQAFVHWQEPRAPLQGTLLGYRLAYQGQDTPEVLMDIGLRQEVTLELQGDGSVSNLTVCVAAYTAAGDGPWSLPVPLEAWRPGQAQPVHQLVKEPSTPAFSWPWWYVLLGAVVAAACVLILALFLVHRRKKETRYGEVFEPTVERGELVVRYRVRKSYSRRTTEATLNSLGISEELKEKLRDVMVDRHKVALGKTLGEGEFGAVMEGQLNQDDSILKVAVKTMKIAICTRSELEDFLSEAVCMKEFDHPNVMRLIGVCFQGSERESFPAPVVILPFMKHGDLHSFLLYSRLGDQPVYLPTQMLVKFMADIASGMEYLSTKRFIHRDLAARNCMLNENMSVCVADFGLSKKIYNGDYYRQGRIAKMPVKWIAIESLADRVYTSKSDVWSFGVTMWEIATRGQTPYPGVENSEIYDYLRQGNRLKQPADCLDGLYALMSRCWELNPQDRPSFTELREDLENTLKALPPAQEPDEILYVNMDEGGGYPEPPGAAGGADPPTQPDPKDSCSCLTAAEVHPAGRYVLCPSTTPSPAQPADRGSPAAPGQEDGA
The experiment can be described thus: NIH-3T3-AXL cellular kinase assay (pY-AXL-ELISA). Particulars: NIH-3T3-AXL (clone 22) cells, serum depleted, compounds 1 h; Table Ia. The method in brief: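 NIH3T3 cells stably expressing human wild-type AXL (retroviral, puromycin-selected clones) were treated with serial compound dilutions for 1 h and lysed. AXL tyrosine phosphorylation was measured by ELISA on the lysates: biotinylated 4G10 anti-phosphotyrosine, streptavidin-alkaline phosphatase, AttoPhos fluorescence at 430/560 nm after 90 min.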
Background: ELISA stands for enzyme-linked immunosorbent assay.

[9] abbreviates: Homo sapiens, C8161 cells, read-out: Total branching inhibition in Matrigel C8161.
Where [10] appears, read: Homo sapiens, Hs-578T, Hs578T cells, read-out: Total branching inhibition in Matrigel Hs578T.
Where [11] appears, read: U118 cells, read-out: Total branching inhibition in Matrigel U118.
Where [12] appears, read: U138 cells, read-out: Total branching inhibition in Matrigel U138.

Consider `COc1cc2c(Oc3ccc(NS(=O)(=O)c4cc(F)ccc4F)cc3F)ccnc2cc1OCCCN1CCCCC1` [Example 1, 2,5-Difluoro-N-{3-fluoro-4-[6-methoxy-7-(3-piperidin-1-yl-propoxy)-quinolin-4-yloxy]-phenyl}-benzenesulfonamide], for which the “Total branching inhibition in Matrigel NCI-H1299” value in experiment [1] is given as “++ (IC100≦12.5 μM)”. In addition, the “Total branching inhibition in Matrigel PC3” value in experiment [2] is recorded as “++ (IC100≦12.5 μM)”. Besides, the “Total branching inhibition in Matrigel SK-MEL28” value in experiment [3] is reported as “++ (IC100≦12.5 μM)”. For the same compound, the “Total branching inhibition in Matrigel U138” value in experiment [4] is reported as “++ (IC100≦12.5 μM)”. The “Total branching inhibition in Matrigel U373” value in experiment [5] was “++ (IC100≦12.5 μM)”. Also, in experiment [6], the “Total branching inhibition in Matrigel U87MG” value is “+ (IC100>12.5 μM)”. Further, the IC50 in experiment [7] (setting [9]), in experiment [7] (setting [10]), in experiment [7] (setting [11]) and in experiment [7] (setting [12]) was not above 5 µM in each case.

On to `COc1cc2c(Oc3ccc(NS(=O)(=O)c4cc(F)ccc4F)cc3F)ccnc2cc1OCCCN1CCN(C)CC1` [Example 12, 2,5-Difluoro-N-(3-fluoro-4-{6-methoxy-7-[3-(4-methyl-piperazin-1-yl)-propoxy]-quinolin-4-yloxy}-phenyl)-benzenesulfonamide], for which the IC50 was less than 0.5 µM in experiment [8]; not above 5 µM in experiment [7] (setting [9]); not above 5 µM in experiment [7] (setting [10]); not above 5 µM in experiment [7] (setting [11]); not above 5 µM in experiment [7] (setting [12]). For the same compound, the “Total branching inhibition in Matrigel NCI-H1299” value in experiment [1] is listed as “++ (IC100≦12.5 μM)”. In addition, in experiment [2], the “Total branching inhibition in Matrigel PC3” value is reported as “++ (IC100≦12.5 μM)”. The “Total branching inhibition in Matrigel SK-MEL28” value in experiment [3] is “++ (IC100≦12.5 μM)”. Also, the “Total branching inhibition in Matrigel U138” value in experiment [4] is reported as “++ (IC100≦12.5 μM)”. Also, in experiment [5], the “Total branching inhibition in Matrigel U373” value is reported as “++ (IC100≦12.5 μM)”. Also, the “Total branching inhibition in Matrigel U87MG” value in experiment [6] is listed as “+ (IC100>12.5 μM)”.

Consider `COc1cc2c(Oc3ccc(NS(=O)(=O)c4ccccc4C(F)(F)F)cc3F)ccnc2cc1OCCCN1CCN(C)CC1` [Example 24, N-(3-Fluoro-4-{6-methoxy-7-[3-(4-methyl-piperazin-1-yl)-propoxy]-quinolin-4-yloxy}-phenyl)-2-trifluoromethyl-benzenesulfonamide], for which, in experiment [1], the “Total branching inhibition in Matrigel NCI-H1299” value is “++ (IC100≦12.5 μM)”. For the same compound, the “Total branching inhibition in Matrigel PC3” value in experiment [2] is listed as “++ (IC100≦12.5 μM)”. In addition, the “Total branching inhibition in Matrigel SK-MEL28” value in experiment [3] was “++ (IC100≦12.5 μM)”. Further, the “Total branching inhibition in Matrigel U138” value in experiment [4] is recorded as “++ (IC100≦12.5 μM)”. Besides, the “Total branching inhibition in Matrigel U373” value in experiment [5] is listed as “++ (IC100≦12.5 μM)”. Further, the “Total branching inhibition in Matrigel U87MG” value in experiment [6] is on record as “+ (IC100>12.5 μM)”. The IC50 in experiment [7] (setting [9]) is not above 5 µM; in experiment [7] (setting [10]), not above 5 µM; in experiment [7] (setting [11]) it was not above 5 µM; in experiment [7] (setting [12]), 5 to 50 µM.

As to `COC(=O)c1sccc1S(=O)(=O)Nc1ccc(Oc2ccnc3cc(OCCCN4CCCC(C)C4)c(OC)cc23)c(F)c1` (stereo not drawn) [Example 66, 3-(3-Fluoro-4-{6-methoxy-7-[3-(3-methyl-piperidin-1-yl)-propoxy]-quinolin-4-yloxy}-phenylsulfamoyl)-thiophene-2-carboxylic acid methyl ester], the IC50 in experiment [8] was less than 0.5 µM; in experiment [7] (setting [9]), not above 5 µM; in experiment [7] (setting [10]) it was not above 5 µM; in experiment [7] (setting [11]) it was not above 5 µM; in experiment [7] (setting [12]), 5 to 50 µM. Moreover, in experiment [1], the “Total branching inhibition in Matrigel NCI-H1299” value is “++ (IC100≦12.5 μM)”. Also, the “Total branching inhibition in Matrigel PC3” value in experiment [2] was “++ (IC100≦12.5 μM)”. In addition, the “Total branching inhibition in Matrigel SK-MEL28” value in experiment [3] is recorded as “++ (IC100≦12.5 μM)”. Moreover, the “Total branching inhibition in Matrigel U138” value in experiment [4] is reported as “++ (IC100≦12.5 μM)”. In experiment [5], the “Total branching inhibition in Matrigel U373” value is recorded as “++ (IC100≦12.5 μM)”. The “Total branching inhibition in Matrigel U87MG” value in experiment [6] is “++ (IC100≦12.5 μM)”.
